Measurements taken from US11419806B2, “Prebiotic oral care methods using a saccharide” (Colgate-Palmolive Company, priority 2013, dated 2022).

Columns and labels:
Test in all cases: Phenotype microarray metabolic activity
Type in all cases: cell-based
Actinomyces naeslundii = settings: A naeslundii
Description: (§1) The extent of metabolic activity of the tested bacteria in the presence of the above-mentioned saccharides after 24 hours and 48 hours was investigated through a high throughput phenotype microarray system (PM) for microbial cells (Biolog Inc.). Each PM can contain up to 95 different biochemical compounds (e.g. saccharides) that may act as substrates for bacteria as well as one negative control, not containing the substrates. Microarray plates were used in which the different wells of each plate were pre-loaded (by the manufacturer, Biolog Inc.) with different saccharides to be tested. Each bacterial species was tested using a separate microarray plate. Thus, a single bacterial species was tested with a variety of saccharides on each particular plate. The microarrays are based on redox technology, using cell respiration as a universal reporter. Active cell respiration results in the reduction of a tetrazolium dye and in the formation of a strong color—for example, when using the tetrazolium dye “Biolog Redox Dye Mix D”, the color changes from transparent/colorless to purple when the dye is reduced. The observation of this color change indicates which of the substrates improve the metabolic activity and health of the cells.
(§2) Each bacterial species was collected from blood agar plates (incubated for 48 hours anaerobically at 37° C.) and transferred to an IF-0 Base inoculation fluid (Biolog Inc.), which is a nutritionally poor medium. The resulting cell suspension was adjusted to a transmittance of 42% (relative to the transmittance of the base inoculation fluid with no bacterial species present) at 492 nm using a BioRad SmartSpec 3000 Photometer (the adjustment being effected by adding either further inoculation fluid or further bacteria until the transmittance of 42% was achieved). A 1:5 dilution of this suspension was prepared by mixing 3 mL of the 42% transmittance cell suspension with 15 mL of an inoculation fluid (which inoculation fluid was formed by mixing 11.6 mL sterile water, 62.5 mL IF-0 base inoculation fluid and 0.9 mL of the tetrazolium dye “Biolog Redox Dye mix D”), resulting in a final cell density which was equal to 85% transmittance using a BioRad SmartSpec 3000 Photometer. For each of the saccharides tested, the microarray plate (obtained from the supplier (Biolog Inc.) with saccharides already present in the relevant wells in powder form) was directly inoculated with 100 μL/well of this 85% transmittance cell suspension.
(§3) All plates were incubated in an anaerobic atmosphere at 37° C. Color changes were measured spectrophotometrically at 492 nm (Thermo Scientific Multiskan Ascent) at 24 hrs and 48 hrs using the same plate at both time points. […] After 24 hrs and 48 hrs under continuous shaking in a Multiscan microplate reader, the optical density (OD) of the synthetic medium at 24 hours and 48 hours was measured (using the microplate reader) at a wavelength of 492 nm for each combination of bacterium/saccharide, and for each of their respective controls (i.e. which contained the particular bacterium but no saccharide).
(§4) The experiment was carried out three times for each combination of bacterium with saccharide, with each repeat being carried out on a different day (thus providing three biological replicas). The controls were also carried out three times, as above. The values shown are the average (mean) of the three single values obtained (as detailed above) for each combination of bacterium with saccharide, at 24 hrs and at 48 hrs.

Actinomyces viscosus = settings: A viscosus
Description: as §1, §2, §3, §4

[1] = tested on: Aggregatibacter actinomycetemcomitans; settings: A actinomycetemcomitans
Description: as §1, §2, §3, §4

Capnocytophaga sputigena = settings: C sputigena
Description: as §1, §2, §3, §4

Fusobacterium nucleatum = settings: F nucleatum
Description: as §1, §2, §3, §4

Porphyromonas gingivalis = settings: P gingivalis
Description: as §1, §2, §3, §4

Prevotella intermedia = settings: P intermedia
Description: as §1, §2, §3, §4

S sanguinis = tested on: S sanguinis
Description: as §1, §2, §3, §4

Streptococcus gordonii = settings: S gordonii
Description: as §1, §2, §3, §4

Streptococcus mitis = settings: S mitis
Description: as §1, §2, §3, §4

Streptococcus mutans = settings: S mutans
Description: as §1, §2, §3, §4

Streptococcus salivarius = settings: S salivarius
Description: as §1, §2, §3, §4

Streptococcus sobrinus = settings: S sobrinus
Description: as §1, §2, §3, §4

Tannerella forsythia = settings: T forsythia
Description: as §1, §2, §3, §4

Veillonella parvula = settings: V parvula
Description: as §1, §2, §3, §4

Compound	metabolic activity: OD 492 nm divided by OD of control (control = 1) (Actinomyces naeslundii; 24 hrs)	metabolic activity: OD 492 nm divided by OD of control (control = 1) (Actinomyces naeslundii; 48 hrs)	metabolic activity: OD 492 nm divided by OD of control (control = 1) (Actinomyces viscosus; 24 hrs)	metabolic activity: OD 492 nm divided by OD of control (control = 1) (Actinomyces viscosus; 48 hrs)	metabolic activity: OD 492 nm divided by OD of control (control = 1) ([1]; 24 hrs)	metabolic activity: OD 492 nm divided by OD of control (control = 1) ([1]; 48 hrs)	metabolic activity: OD 492 nm divided by OD of control (control = 1) (Capnocytophaga sputigena; 24 hrs)	metabolic activity: OD 492 nm divided by OD of control (control = 1) (Capnocytophaga sputigena; 48 hrs)	metabolic activity: OD 492 nm divided by OD of control (control = 1) (Fusobacterium nucleatum; 24 hrs)	metabolic activity: OD 492 nm divided by OD of control (control = 1) (Fusobacterium nucleatum; 48 hrs)	metabolic activity: OD 492 nm divided by OD of control (control = 1) (Porphyromonas gingivalis; 24 hrs)	metabolic activity: OD 492 nm divided by OD of control (control = 1) (Porphyromonas gingivalis; 48 hrs)	metabolic activity: OD 492 nm divided by OD of control (control = 1) (Prevotella intermedia; 24 hrs)	metabolic activity: OD 492 nm divided by OD of control (control = 1) (Prevotella intermedia; 48 hrs)	metabolic activity: OD 492 nm divided by OD of control (control = 1) (S sanguinis; 24 hrs)	metabolic activity: OD 492 nm divided by OD of control (control = 1) (S sanguinis; 48 hrs)	metabolic activity: OD 492 nm divided by OD of control (control = 1) (Streptococcus gordonii; 24 hrs)	metabolic activity: OD 492 nm divided by OD of control (control = 1) (Streptococcus gordonii; 48 hrs)	metabolic activity: OD 492 nm divided by OD of control (control = 1) (Streptococcus mitis; 24 hrs)	metabolic activity: OD 492 nm divided by OD of control (control = 1) (Streptococcus mitis; 48 hrs)	also measured
O[C@H]1[C@H](O)[C@@H](O)[C@H](O)[C@@H](O)[C@H]1O [Myo-Inositol, (1R,2R,3S,4S,5R,6S)-cyclohexane-1,2,3,4,5,6-hexol]	3.8627	4.5573	4.3733	4.6590	1.3215	1.5191	0.5471	0.8107	0.9063	0.8999	0.8077	0.7871	1.0174	1.0226	0.9436	1.0400	0.8556	0.8202	1.0571	0.9877	metabolic activity: OD 492 nm divided by OD of control (control = 1) (Streptococcus mutans; 24 hrs): 0.8961; metabolic activity: OD 492 nm divided by OD of control (control = 1) (Streptococcus mutans; 48 hrs): 0.8221; metabolic activity: OD 492 nm divided by OD of control (control = 1) (Streptococcus salivarius; 24 hrs): 0.9641; metabolic activity: OD 492 nm divided by OD of control (control = 1) (Streptococcus salivarius; 48 hrs): 0.8260; metabolic activity: OD 492 nm divided by OD of control (control = 1) (Streptococcus sobrinus; 24 hrs): 0.9699; metabolic activity: OD 492 nm divided by OD of control (control = 1) (Streptococcus sobrinus; 48 hrs): 0.9399; metabolic activity: OD 492 nm divided by OD of control (control = 1) (Tannerella forsythia; 24 hrs): 0.9597; metabolic activity: OD 492 nm divided by OD of control (control = 1) (Tannerella forsythia; 48 hrs): 0.9564; metabolic activity: OD 492 nm divided by OD of control (control = 1) (Veillonella parvula; 24 hrs): 1.0283; metabolic activity: OD 492 nm divided by OD of control (control = 1) (Veillonella parvula; 48 hrs): 1.0829
CC(=O)N[C@H](C=O)[C@@H](O)[C@H](O)[C@H](O)CO [N-acetyl-D-mannosamine, 2-acetamido-2-deoxy-D-mannose]	1.4397	1.7022	0.9778	1.0151	1.7369	2.1360	1.1116	1.0780	1.0897	1.0886	0.7968	0.8296	0.9878	0.9805	2.9770	3.0358	1.6021	2.3739	3.4298	3.0447	metabolic activity: OD 492 nm divided by OD of control (control = 1) (Streptococcus mutans; 24 hrs): 1.0429; metabolic activity: OD 492 nm divided by OD of control (control = 1) (Streptococcus mutans; 48 hrs): 1.0176; metabolic activity: OD 492 nm divided by OD of control (control = 1) (Streptococcus salivarius; 24 hrs): 1.0589; metabolic activity: OD 492 nm divided by OD of control (control = 1) (Streptococcus salivarius; 48 hrs): 0.9795; metabolic activity: OD 492 nm divided by OD of control (control = 1) (Streptococcus sobrinus; 24 hrs): 1.1993; metabolic activity: OD 492 nm divided by OD of control (control = 1) (Streptococcus sobrinus; 48 hrs): 1.1453; metabolic activity: OD 492 nm divided by OD of control (control = 1) (Tannerella forsythia; 24 hrs): 0.9666; metabolic activity: OD 492 nm divided by OD of control (control = 1) (Tannerella forsythia; 48 hrs): 0.9443; metabolic activity: OD 492 nm divided by OD of control (control = 1) (Veillonella parvula; 24 hrs): 0.9189; metabolic activity: OD 492 nm divided by OD of control (control = 1) (Veillonella parvula; 48 hrs): 0.9284
